According to US20120277161A1, “INHIBITION OF MULTIPLE CELL ACTIVATION PATHWAYS” (INTER-K PTY LIMITED, priority 2009, published 2012):

Tests used:
[1] = system: HT29 human colorectal adenocarcinoma tumour; assay: Inhibition of HT29 tumour growth in a mouse model; assay type: in vivo, Mouse (Mus musculus) BALB/c nu/nu; conditions: for Tumour volume Delta avg: change from day 0; for dT/dC [%]: versus vehicle
Protocol: HT29 human colorectal adenocarcinoma cells were cultured in RPMI 1640 cell culture medium supplemented with 10% v/v heat inactivated FCS and 50 IU/mL penicillin-streptomycin. The cells were harvested by trypsinisation, washed twice in HBSS and counted. The cells were then resuspended in HBSS to a final concentration of 2×10^7 cells/mL.
Prior to inoculation the skin on the injection site (dorsal right flank) was swabbed with alcohol. The needle was introduced through the skin into the subcutaneous space just below the animal's right shoulder, and 100 μL of cells (2×10^6 cells) were discharged. The treatment of mice began nine days after HT29 cell inoculation, the average tumour volume was 68 mm^3 (average variability of 6.1%).
Body weight and tumour dimensions (length and diameter) were measured for all animals on the first day of treatment (day 0) and then three times per week, including the termination day of the study (Day 24).
Mice were randomized, based on body weight, into two groups of ten mice on Day 0 of the study. The peptide dendrimer Dend 10-10(4) presenting 10 monomer units of the peptide RSKAKNPLYR (SEQ ID No. 6) (see Example 2) was used in this study. The vehicle control (phosphate buffered saline (PBS)) and Dend 10-10(4) dendrimer (20 mg/kg) were each administered by intra-tumoural injection once daily for five consecutive days, beginning on Day 0.
The vehicle control and Dend 10-10(4) dendrimer were administered at a dosing volume of 4.762 mL/kg (100 μL) based on a 21 g mouse. Each animal's body weight was measured immediately prior to dosing. The volume of dosing solution administered to each mouse was calculated and adjusted based on individual body weight.
Tumours were excised from all mice post mortem and weighed. Tumour volume was calculated using the equation:
V (mm^3)=length×diameter^2×π/6
ΔT/ΔC (%) was calculated using the following equation:
ΔT/ΔC %=(ΔvolumeTreatment/ΔVolumeControl)×100
where Δ=change in volume from day 0 to the final measurement day or nominated day of interest.

[2] = molecular target: PKC beta I (Homo sapiens, UniProt P05771); assay: PKC kinase activity assay; assay type: biochemical; conditions: dendrimer conc. 1 μM; read-out: Percentage (%) kinase inhibition PKC beta I
Sequence of PKC beta I (P05771 whole entry): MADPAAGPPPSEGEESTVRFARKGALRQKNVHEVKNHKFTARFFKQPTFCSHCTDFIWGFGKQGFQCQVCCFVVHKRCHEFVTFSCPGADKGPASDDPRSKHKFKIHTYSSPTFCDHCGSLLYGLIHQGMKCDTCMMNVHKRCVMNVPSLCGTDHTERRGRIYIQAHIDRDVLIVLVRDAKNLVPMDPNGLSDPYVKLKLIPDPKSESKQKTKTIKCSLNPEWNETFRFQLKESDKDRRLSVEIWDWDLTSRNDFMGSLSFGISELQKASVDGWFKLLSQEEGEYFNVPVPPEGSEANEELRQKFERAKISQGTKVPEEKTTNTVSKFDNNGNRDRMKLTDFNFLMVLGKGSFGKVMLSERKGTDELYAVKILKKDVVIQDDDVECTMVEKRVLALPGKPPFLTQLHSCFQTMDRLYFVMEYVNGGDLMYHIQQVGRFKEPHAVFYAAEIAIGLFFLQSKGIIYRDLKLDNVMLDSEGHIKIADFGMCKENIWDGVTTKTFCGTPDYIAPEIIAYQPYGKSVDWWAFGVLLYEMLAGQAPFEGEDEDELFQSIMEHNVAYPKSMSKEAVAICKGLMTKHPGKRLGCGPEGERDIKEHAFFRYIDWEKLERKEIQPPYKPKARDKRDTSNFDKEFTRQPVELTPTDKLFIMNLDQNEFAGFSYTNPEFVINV
Protocol: (§1) In a final reaction volume of […] PKC kinase (h) (5-10 mU) is incubated with 20 mM HEPES pH 7.4, 0.03% Triton X-100, […], 0.1 mg/mL phosphatidylserine, 10 μg/mL diacylglycerol, 0.1 mg/mL histone H1 or 50 μM of the peptide ERMRPRKRQGSVRRRV (SEQ ID No. 20), 10 mM MgAcetate and [γ-33P-ATP] (specific activity approx. 500 cpm/pmol, concentration as required). The reaction is initiated by the addition of the MgATP mix. After incubation for 40 minutes at room temperature, the reaction is stopped by the addition of 5 μL of a 3% phosphoric acid solution. 10 μL of the reaction is then spotted onto a P30 filtermat and washed three times for 5 minutes in 75 mM phosphoric acid and once in methanol prior to drying and scintillation counting.

[3] = molecular target: PKC beta II (Homo sapiens, UniProt P05771); assay: PKC kinase activity assay; assay type: biochemical; conditions: dendrimer conc. 1 μM; read-out: Percentage (%) kinase inhibition PKC beta II
Sequence of PKC beta II (P05771 1-673 isoform P05771-2): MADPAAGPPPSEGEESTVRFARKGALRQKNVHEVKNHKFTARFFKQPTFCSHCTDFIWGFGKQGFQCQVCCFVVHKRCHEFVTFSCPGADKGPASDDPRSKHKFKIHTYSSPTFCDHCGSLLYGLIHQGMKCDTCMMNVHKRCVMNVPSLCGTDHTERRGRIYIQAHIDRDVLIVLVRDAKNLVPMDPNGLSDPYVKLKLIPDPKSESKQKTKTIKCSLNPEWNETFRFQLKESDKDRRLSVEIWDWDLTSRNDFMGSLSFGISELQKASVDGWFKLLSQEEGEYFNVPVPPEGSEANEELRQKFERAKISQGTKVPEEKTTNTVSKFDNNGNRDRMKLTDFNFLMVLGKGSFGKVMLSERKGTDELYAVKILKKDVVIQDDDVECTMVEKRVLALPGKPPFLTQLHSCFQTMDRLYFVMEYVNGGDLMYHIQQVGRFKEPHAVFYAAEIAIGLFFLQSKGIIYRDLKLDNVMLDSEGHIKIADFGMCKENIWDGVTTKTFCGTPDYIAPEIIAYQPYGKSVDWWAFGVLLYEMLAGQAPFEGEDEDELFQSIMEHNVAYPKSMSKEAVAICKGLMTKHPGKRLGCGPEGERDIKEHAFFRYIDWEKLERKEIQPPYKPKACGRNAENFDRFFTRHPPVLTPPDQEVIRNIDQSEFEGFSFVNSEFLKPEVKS
Protocol: as §1

[4] = molecular target: PKC alpha (Homo sapiens, UniProt P17252); assay: PKC kinase activity assay; assay type: biochemical; conditions: dendrimer conc. 1 μM; read-out: Percentage (%) kinase inhibition PKC alpha
Protocol: as §1

[5] = molecular target: PI3K P110δ (Homo sapiens, UniProt O00329); assay: PI3K HTRF activity assay; assay type: biochemical; conditions: dendrimer conc. 1 μM; read-out: Percentage (%) kinase inhibition PI3K P110δ
Sequence of PI3K P110δ (O00329 whole entry, the tested form may be a part): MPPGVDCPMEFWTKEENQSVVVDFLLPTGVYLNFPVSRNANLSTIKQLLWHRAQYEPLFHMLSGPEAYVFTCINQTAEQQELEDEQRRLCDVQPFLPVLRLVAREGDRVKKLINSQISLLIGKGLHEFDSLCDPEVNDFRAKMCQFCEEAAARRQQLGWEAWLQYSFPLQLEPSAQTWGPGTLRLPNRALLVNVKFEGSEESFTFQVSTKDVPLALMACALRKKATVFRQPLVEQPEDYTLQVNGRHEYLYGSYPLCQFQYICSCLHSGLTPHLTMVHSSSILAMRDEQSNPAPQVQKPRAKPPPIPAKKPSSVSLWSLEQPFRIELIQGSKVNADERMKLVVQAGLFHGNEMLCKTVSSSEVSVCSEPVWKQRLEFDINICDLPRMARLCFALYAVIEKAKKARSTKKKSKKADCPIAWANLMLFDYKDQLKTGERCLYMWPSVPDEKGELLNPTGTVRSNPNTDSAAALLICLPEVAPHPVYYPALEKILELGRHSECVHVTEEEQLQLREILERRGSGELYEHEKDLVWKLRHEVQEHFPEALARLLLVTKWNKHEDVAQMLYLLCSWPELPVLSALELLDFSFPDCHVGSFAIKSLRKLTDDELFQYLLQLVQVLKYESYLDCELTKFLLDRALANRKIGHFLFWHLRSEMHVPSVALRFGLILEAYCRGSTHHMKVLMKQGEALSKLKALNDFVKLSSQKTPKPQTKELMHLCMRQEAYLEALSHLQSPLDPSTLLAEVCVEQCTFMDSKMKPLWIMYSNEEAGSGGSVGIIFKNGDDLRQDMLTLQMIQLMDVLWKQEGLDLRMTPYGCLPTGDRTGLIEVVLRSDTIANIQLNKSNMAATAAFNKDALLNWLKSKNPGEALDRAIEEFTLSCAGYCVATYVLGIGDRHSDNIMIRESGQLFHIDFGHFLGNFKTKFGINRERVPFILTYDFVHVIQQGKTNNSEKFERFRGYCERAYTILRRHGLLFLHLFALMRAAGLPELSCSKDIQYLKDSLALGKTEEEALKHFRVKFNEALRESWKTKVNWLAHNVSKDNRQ
Sequence of PI3K P110δ (P27986 whole entry partner, the tested form may be a part): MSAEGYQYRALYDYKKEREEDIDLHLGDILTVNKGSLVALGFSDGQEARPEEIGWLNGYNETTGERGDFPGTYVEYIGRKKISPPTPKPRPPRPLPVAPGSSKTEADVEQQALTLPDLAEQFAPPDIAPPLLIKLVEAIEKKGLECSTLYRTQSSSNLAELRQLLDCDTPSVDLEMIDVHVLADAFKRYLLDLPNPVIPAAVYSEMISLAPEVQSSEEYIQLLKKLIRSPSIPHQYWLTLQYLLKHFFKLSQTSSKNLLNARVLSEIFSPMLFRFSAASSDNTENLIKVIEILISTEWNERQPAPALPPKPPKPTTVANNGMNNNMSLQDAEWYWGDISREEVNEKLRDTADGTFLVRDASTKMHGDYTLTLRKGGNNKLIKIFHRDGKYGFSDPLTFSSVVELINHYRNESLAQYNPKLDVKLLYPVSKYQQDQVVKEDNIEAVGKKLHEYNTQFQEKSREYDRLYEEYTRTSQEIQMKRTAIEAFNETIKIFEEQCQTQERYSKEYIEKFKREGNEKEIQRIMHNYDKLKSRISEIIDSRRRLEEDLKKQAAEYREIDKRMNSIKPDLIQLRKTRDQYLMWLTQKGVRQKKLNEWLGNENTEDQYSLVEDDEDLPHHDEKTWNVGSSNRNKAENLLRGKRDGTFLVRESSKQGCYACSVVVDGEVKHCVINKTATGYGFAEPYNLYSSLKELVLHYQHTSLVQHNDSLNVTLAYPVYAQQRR
Protocol: In a final reaction volume of 20 μL, the test PI3K is incubated in assay buffer containing 10 μM phosphatidylinositol-4,5-bisphosphate and MgATP. The reaction is initiated by the addition of the MgATP mix. After incubation for 30 minutes at room temperature, the reaction is stopped by the addition of 5 μL of stop solution containing EDTA and biotinylated phosphatidylinositol-3,4,5-trisphosphate. Finally, 5 μL of detection buffer is added (containing europium-labelled anti-GST monoclonal antibody, GST-tagged GRP1 PH domain and streptavidin-allophycocyanin). The test plate is then read in time-resolved fluorescence mode and the homogenous time-resolved fluorescence (HTRF) signal is determined according to the formula HTRF=10000×(Em665 nm/Em620 nm).

## CC(C)C[C@H](NC(=O)[C@@H]1CCCN1C(=O)[C@H](CC(N)=O)NC(=O)[C@H](CCCCN)NC(=O)[C@H](C)NC(=O)[C@H](CCCCN)NC(=O)[C@H](CO)NC(=O)[C@@H](N)CCCNC(=N)N)C(=O)N[C@@H](Cc1ccc(O)cc1)C(=O)N[C@@H](CCCNC(=N)N)C(=O)NCCCC[C@H](NC(=O)[C@H](CCCCNC(=O)[C@H](CCCCNC(=O)[C@H](CCCNC(=N)N)NC(=O)[C@H](Cc1ccc(O)cc1)NC(=O)[C@H](CC(C)C)NC(=O)[C@@H]1CCCN1C(=O)[C@H](CC(N)=O)NC(=O)[C@H](CCCCN)NC(=O)[C@H](C)NC(=O)[C@H](CCCCN)NC(=O)[C@H](CO)NC(=O)[C@@H](N)CCCNC(=N)N)NC(=O)[C@H](CCCNC(=N)N)NC(=O)[C@H](Cc1ccc(O)cc1)NC(=O)[C@H](CC(C)C)NC(=O)[C@@H]1CCCN1C(=O)[C@H](CC(N)=O)NC(=O)[C@H](CCCCN)NC(=O)[C@H](C)NC(=O)[C@H](CCCCN)NC(=O)[C@H](CO)NC(=O)[C@@H](N)CCCNC(=N)N)NC(=O)[C@H](CCCCNC(=O)[C@H](CCCNC(=N)N)NC(=O)[C@H](Cc1ccc(O)cc1)NC(=O)[C@H](CC(C)C)NC(=O)[C@@H]1CCCN1C(=O)[C@H](CC(N)=O)NC(=O)[C@H](CCCCN)NC(=O)[C@H](C)NC(=O)[C@H](CCCCN)NC(=O)[C@H](CO)NC(=O)[C@@H](N)CCCNC(=N)N)NC(=O)[C@H](CCCNC(=N)N)NC(=O)[C@H](Cc1ccc(O)cc1)NC(=O)[C@H](CC(C)C)NC(=O)[C@@H]1CCCN1C(=O)[C@H](CC(N)=O)NC(=O)[C@H](CCCCN)NC(=O)[C@H](C)NC(=O)[C@H](CCCCN)NC(=O)[C@H](CO)NC(=O)[C@@H](N)CCCNC(=N)N)C(=O)NCCCC[C@H](NC(=O)[C@H](CCCCNC(=O)[C@H](CCCNC(=N)N)NC(=O)[C@H](Cc1ccc(O)cc1)NC(=O)[C@H](CC(C)C)NC(=O)[C@@H]1CCCN1C(=O)[C@H](CC(N)=O)NC(=O)[C@H](CCCCN)NC(=O)[C@H](C)NC(=O)[C@H](CCCCN)NC(=O)[C@H](CO)NC(=O)[C@@H](N)CCCNC(=N)N)NC(=O)[C@H](CCCCNC(=O)[C@H](CCCCNC(=O)[C@H](CCCNC(=N)N)NC(=O)[C@H](Cc1ccc(O)cc1)NC(=O)[C@H](CC(C)C)NC(=O)[C@@H]1CCCN1C(=O)[C@H](CC(N)=O)NC(=O)[C@H](CCCCN)NC(=O)[C@H](C)NC(=O)[C@H](CCCCN)NC(=O)[C@H](CO)NC(=O)[C@@H](N)CCCNC(=N)N)NC(=O)[C@H](CCCNC(=N)N)NC(=O)[C@H](Cc1ccc(O)cc1)NC(=O)[C@H](CC(C)C)NC(=O)[C@@H]1CCCN1C(=O)[C@H](CC(N)=O)NC(=O)[C@H](CCCCN)NC(=O)[C@H](C)NC(=O)[C@H](CCCCN)NC(=O)[C@H](CO)NC(=O)[C@@H](N)CCCNC(=N)N)NC(=O)[C@H](CCCCNC(=O)[C@H](CCCNC(=N)N)NC(=O)[C@H](Cc1ccc(O)cc1)NC(=O)[C@H](CC(C)C)NC(=O)[C@@H]1CCCN1C(=O)[C@H](CC(N)=O)NC(=O)[C@H](CCCCN)NC(=O)[C@H](C)NC(=O)[C@H](CCCCN)NC(=O)[C@H](CO)NC(=O)[C@@H](N)CCCNC(=N)N)NC(=O)[C@H](CCCNC(=N)N)NC(=O)[C@H](Cc1ccc(O)cc1)NC(=O)[C@H](CC(C)C)NC(=O)[C@@H]1CCCN1C(=O)[C@H](CC(N)=O)NC(=O)[C@H](CCCCN)NC(=O)[C@H](C)NC(=O)[C@H](CCCCN)NC(=O)[C@H](CO)NC(=O)[C@@H](N)CCCNC(=N)N)C(=O)NCCC(N)=O [Dend 10-10(4)]
[1]; 20 mg/kg intra-tumoural once daily for five days, Day 0
  Tumour volume Average: 68.0 mm^3
[1]; 20 mg/kg intra-tumoural once daily for five days, Day 2
  Tumour volume Average: 136.6 mm^3
[1]; 20 mg/kg intra-tumoural once daily for five days, Day 4
  Tumour volume Average: 211.9 mm^3
[1]; 20 mg/kg intra-tumoural once daily for five days, Day 7
  Tumour volume Average: 248.6 mm^3
[1]; 20 mg/kg intra-tumoural once daily for five days, Day 11
  Tumour volume Average: 300.9 mm^3
[1]; 20 mg/kg intra-tumoural once daily for five days, Day 14
  Tumour volume Average: 323.9 mm^3
[1]; 20 mg/kg intra-tumoural once daily for five days, Day 16
  Tumour volume Average: 391.0 mm^3
[1]; 20 mg/kg intra-tumoural once daily for five days, Day 18
  Tumour volume Average: 476.9 mm^3
[1]; 20 mg/kg intra-tumoural once daily for five days, Day 21
  Tumour volume Average: 601.5 mm^3
[1]; 20 mg/kg intra-tumoural once daily for five days, Day 24
  Tumour volume Average: 702.1 mm^3
[1]; 20 mg/kg intra-tumoural once daily for five days, Day 24, control 0.962 g
  average tumour weight at the end of the study: 0.437 g
[1]; FIG. 16
  tumour growth compared to the vehicle only control: markedly inhibited
[1]; Day 0
  Tumour volume Delta avg: 0.0 mm^3
  dT/dC [%]: 100.0%
[1]; Day 2
  Tumour volume Delta avg: 68.6 mm^3
  dT/dC [%]: 134.3%
[1]; Day 4
  Tumour volume Delta avg: 144.0 mm^3
  dT/dC [%]: 102.0%
[1]; Day 7
  Tumour volume Delta avg: 180.6 mm^3
  dT/dC [%]: 68.1%
[1]; Day 11
  Tumour volume Delta avg: 232.9 mm^3
  dT/dC [%]: 58.0%
[1]; Day 14
  Tumour volume Delta avg: 255.9 mm^3
  dT/dC [%]: 44.6%
[1]; Day 16
  Tumour volume Delta avg: 323.1 mm^3
  dT/dC [%]: 45.2%
[1]; Day 18
  Tumour volume Delta avg: 408.9 mm^3
  dT/dC [%]: 47.1%
[1]; Day 21
  Tumour volume Delta avg: 598.7 mm^3
  dT/dC [%]: 55.7%
[1]; Day 24
  Tumour volume Delta avg: 710.4 mm^3
  dT/dC [%]: 54.5%
[2]
  inhibition at 1 µM: 67%
[3]
  inhibition at 1 µM: 75%
[4]
  inhibition at 1 µM: 78%
[5]
  inhibition at 1 µM: 56%
